The values that follow are results of earlier work, collected in patent publication US20200337300A1, “GREASE-LIKE GEL FOR REPELLING INSECTS AND PREVENTING UNDESIRABLE BEHAVIOR IN HOOFED ANIMALS” (Pacific Tech Industries, Inc., priority 2010, published 2020).

For series [1] the following is noted: for solubility in organic solvents: most organic solvents.
For series [2] the following is noted: pungency of the pure capsaicinoid.

For the compound `C=CCN=C=S` [Allyl isothiocyanate], in series [1], the “solubility in organic solvents” value was “soluble in most organic solvents” and the solubility in water entry is given as “slightly soluble in water”.
Consider `COc1cc(CNC(=O)CCCC/C=C/C(C)C)ccc1O` [Capsaicin, 8-methyl-N-vanillyl-6-nonenamide], for which the Scoville heat units in series [2] is 16,000,000 Scoville heat units.
Regarding `COc1cc(CNC(=O)CCCCC/C=C/C(C)C)ccc1O` [Homocapsaicin], the Scoville heat units in series [2] is 8,600,000 Scoville heat units.
Regarding `COc1cc(CNC(=O)CCCCCCCC(C)C)ccc1O` [Homodihydrocapsaicin], in series [2], the Scoville heat units is listed as 8,600,000 Scoville heat units.
In the case of `C=CCS[S+]([O-])CC=C` (stereo not shown) [allicin], in series [1], the “solubility in organic solvents” value is listed as “soluble in most organic solvents” and the solubility in water result is listed as “slightly soluble in water”.
